Data: US20250066350A1, “AROMATIC HETEROCYCLE-SUBSTITUTED COMPOUNDS, AND PREPARATION METHOD THEREFOR AND USE THEREOF” (Innovstone Therapeutics Limited, priority 2021, published 2025)
Where two headings read alike, the source gives them in different places.

Key:
ATR enzyme = ATR enzyme (Homo sapiens (Human), UniProt Q13535); test: Inhibitory effect on ATR enzyme (HTRF, phospho-P53); assay type: biochemical; settings: 90 minutes incubation, 150 nM ATP final; read-out: IC50 for ATR enzyme inhibition
Sequence of ATR enzyme (Q13535 whole entry): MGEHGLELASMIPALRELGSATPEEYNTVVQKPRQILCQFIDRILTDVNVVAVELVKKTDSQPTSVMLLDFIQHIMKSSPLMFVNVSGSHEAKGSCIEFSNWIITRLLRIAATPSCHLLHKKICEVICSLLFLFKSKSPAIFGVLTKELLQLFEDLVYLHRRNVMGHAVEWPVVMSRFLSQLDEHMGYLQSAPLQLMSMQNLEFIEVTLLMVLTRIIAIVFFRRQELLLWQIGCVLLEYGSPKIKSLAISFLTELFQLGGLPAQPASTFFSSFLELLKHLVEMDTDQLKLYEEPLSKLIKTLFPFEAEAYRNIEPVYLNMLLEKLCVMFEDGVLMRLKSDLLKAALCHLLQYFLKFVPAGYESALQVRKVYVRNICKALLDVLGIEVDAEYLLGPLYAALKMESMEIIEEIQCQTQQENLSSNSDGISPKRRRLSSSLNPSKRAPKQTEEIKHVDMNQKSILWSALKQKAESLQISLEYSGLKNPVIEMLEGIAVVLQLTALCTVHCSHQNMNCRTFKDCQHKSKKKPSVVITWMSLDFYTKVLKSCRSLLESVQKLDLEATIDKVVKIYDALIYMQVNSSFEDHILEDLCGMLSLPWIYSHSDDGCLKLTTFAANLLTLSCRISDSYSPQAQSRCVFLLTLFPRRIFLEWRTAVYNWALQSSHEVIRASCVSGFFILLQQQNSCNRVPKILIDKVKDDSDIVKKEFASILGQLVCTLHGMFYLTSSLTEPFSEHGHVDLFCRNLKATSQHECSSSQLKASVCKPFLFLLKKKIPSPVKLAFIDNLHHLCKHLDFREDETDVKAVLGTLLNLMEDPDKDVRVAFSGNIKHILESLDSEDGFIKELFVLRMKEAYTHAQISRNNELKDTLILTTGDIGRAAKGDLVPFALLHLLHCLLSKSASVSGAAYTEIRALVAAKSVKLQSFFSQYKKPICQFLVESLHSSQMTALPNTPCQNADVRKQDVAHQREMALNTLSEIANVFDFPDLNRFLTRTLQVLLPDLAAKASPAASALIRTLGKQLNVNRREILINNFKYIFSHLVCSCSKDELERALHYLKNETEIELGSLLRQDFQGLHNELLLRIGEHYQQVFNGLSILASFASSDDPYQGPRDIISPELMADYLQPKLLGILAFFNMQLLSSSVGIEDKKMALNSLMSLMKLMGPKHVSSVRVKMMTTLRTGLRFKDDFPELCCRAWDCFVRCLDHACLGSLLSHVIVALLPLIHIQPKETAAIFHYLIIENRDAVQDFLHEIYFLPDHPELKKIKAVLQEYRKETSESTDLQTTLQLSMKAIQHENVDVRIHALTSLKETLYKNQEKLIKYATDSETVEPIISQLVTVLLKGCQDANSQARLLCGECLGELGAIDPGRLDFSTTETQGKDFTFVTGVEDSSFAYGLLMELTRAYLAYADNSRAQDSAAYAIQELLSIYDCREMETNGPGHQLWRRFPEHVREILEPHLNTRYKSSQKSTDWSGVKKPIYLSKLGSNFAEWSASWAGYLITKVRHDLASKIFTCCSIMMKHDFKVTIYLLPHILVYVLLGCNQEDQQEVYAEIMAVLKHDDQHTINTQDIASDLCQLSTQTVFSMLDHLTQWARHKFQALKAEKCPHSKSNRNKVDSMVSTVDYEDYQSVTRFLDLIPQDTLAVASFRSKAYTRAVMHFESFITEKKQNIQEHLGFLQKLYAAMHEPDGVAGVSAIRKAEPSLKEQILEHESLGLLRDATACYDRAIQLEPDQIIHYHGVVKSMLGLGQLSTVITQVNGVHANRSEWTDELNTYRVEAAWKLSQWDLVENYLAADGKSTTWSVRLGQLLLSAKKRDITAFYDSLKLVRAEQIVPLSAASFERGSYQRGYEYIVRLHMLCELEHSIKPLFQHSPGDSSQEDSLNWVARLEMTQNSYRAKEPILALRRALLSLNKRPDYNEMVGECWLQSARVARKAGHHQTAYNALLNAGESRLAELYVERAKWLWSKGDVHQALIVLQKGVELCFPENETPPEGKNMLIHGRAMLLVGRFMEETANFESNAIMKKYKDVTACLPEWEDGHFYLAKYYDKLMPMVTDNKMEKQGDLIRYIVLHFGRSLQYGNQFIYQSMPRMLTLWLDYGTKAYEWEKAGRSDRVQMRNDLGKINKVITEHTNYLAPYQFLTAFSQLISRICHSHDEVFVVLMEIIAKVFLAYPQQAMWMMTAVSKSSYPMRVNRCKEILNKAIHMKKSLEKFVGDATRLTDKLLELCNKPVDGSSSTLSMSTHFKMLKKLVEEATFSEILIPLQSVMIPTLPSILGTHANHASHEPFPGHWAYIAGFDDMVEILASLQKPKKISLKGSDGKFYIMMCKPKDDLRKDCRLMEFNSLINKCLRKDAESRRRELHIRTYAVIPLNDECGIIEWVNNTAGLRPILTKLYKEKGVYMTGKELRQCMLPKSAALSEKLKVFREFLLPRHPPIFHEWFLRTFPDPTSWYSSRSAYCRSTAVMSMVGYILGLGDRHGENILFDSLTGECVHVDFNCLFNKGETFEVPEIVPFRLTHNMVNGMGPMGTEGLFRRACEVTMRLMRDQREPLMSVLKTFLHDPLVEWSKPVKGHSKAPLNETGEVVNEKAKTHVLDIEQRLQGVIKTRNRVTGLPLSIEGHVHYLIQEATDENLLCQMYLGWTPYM
Sequence of ATR enzyme (Q8WXE1 whole entry partner): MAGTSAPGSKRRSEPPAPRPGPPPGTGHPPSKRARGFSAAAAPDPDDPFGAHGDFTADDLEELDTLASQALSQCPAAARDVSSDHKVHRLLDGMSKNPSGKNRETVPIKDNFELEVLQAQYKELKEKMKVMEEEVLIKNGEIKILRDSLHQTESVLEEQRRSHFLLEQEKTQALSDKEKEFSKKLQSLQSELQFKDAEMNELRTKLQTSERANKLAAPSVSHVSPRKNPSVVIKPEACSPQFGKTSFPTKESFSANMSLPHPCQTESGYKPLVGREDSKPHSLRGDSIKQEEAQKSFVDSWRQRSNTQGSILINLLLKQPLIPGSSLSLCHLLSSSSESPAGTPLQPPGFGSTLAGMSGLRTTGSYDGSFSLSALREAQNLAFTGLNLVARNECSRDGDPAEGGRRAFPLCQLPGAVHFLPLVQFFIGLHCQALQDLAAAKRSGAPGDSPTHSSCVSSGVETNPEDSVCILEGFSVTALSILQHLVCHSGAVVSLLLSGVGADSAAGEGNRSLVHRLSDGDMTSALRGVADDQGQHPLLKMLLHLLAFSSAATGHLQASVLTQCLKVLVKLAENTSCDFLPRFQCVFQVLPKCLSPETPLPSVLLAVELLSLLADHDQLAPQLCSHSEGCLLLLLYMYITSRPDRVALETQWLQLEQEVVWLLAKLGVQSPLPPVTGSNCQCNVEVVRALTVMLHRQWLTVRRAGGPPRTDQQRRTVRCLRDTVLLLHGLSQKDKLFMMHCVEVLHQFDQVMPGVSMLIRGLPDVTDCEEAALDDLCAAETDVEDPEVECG
Method: Test Example 1. Inhibitory Effect of Compounds of the Present Invention on ATR Enzyme
The following method is used to determine the inhibitory effect of the compounds of the present invention on the ATR enzyme. The experimental method is briefly described as follows:
1. ATR enzyme (Eurofins Pharma Discovery Services, 14-953M)
2. GST-tagged P53 protein (Eurofins Pharma Discovery Services, 14-952M)
15 nM ATR enzyme, 80 nM P53 protein, 300 nM ATP (the final concentrations were 40 nM and 150 nM, respectively), and small molecule compounds of various concentrations (the final concentrations (nM) of the ten points were 2985.0, 895.5, 298.5, 110.56, 33.17, 11.06, 4.09, 1.23, 0.41 and 0.15, respectively, and the final dimethyl sulfoxide concentration was 0.498%) were mixed and incubated at room temperature for 90 minutes. 10 μL of 2× cocktail buffer was added to the mixture of ATR, compound and substrate in the assay plate (anti-phospho-p53-Eu and anti-GST-d2 were diluted in the assay buffer). The resulting mixture was centrifuged at 1000 rpm for 30 seconds, and incubated overnight at 4° C. in the dark (a total of 20 μl in each well). The FRET signal (endpoint) was measured in the Envision instrument (HTRF 665/612 ratio was calculated at 665 nm emission and 612 nm emission). Data were processed using GraphPad software.
The inhibitory activity of the compounds of the present invention on the ATR enzyme can be determined by the test described above, and the measured IC50 values are shown in Table 1.

SNU-601 cells = test: SNU-601 cell proliferation experiment (CellTiter-Glo, intracellular ATP); assay type: cell-based; settings: SNU-601 human gastric cancer cells, 5 days, read-out: IC50 for inhibition of SNU-601 cell proliferation
Method: The following method is used to evaluate the inhibitory effect of the compounds of the present disclosure on SNU-601 cell proliferation according to the IC50 values by means of detecting the intracellular ATP content. The experimental method is briefly described as follows:
1. SNU-601, human gastric cancer tumor cells (Co-bioer, CBP60507)
SNU-601 cells were cultured in RPMI 1640 medium containing 10% FBS and passaged 2 to 3 times a week at a split ratio of 1:5 or 1:10. During passage, the cells were trypsinized and transferred to a centrifuge tube. The tube was centrifuged at 1000 rpm for 5 minutes, the supernatant medium was discarded, and fresh medium was added to resuspend the cells. 195 μL of cell suspension at a density of 5.128×10^3 cells/mL was added to a 96-well cell culture plate, and 200 μL of complete medium only was added to the periphery wells of the 96-well plate. The culture plate was incubated in an incubator for 24 hours (37° C., 5% CO2).
The sample to be tested was diluted to 2 mM with DMSO, diluted 3-fold serially to 10 concentrations. Blank and control wells were set. 10 μL of the solution containing the compound to be tested prepared in gradient concentrations was added to 50 μL of fresh medium. 5 μL of the above culture medium solution containing the compound was added to the culture plate. The culture plate was incubated in an incubator for 5 days (37° C., 5% CO2). 50 μL of CellTiter-Glo reagent was added to each well of the 96-well cell culture plate after discarding 100 μL/well, and the plate was shaken at room temperature in the dark for 10 min. The chemiluminescent signal values were read in PHERAstar, and data were processed using GraphPad software.
The inhibitory effect of the compounds of the present invention on SNU-601 cell proliferation can be determined by the test described above, and the measured IC50 values are shown in Table 3.

SMILES	IC50 (ATR enzyme) [nM]	IC50 (SNU-601 cells; 120 h) [nM]	IC50 (SNU-601 cells) [nM]
CC(=O)Nc1ccc(-c2cc(N3CCOC[C@H]3C)nc3c2cnn3-c2cc[nH]n2)cc1 [Example 30, (R)-N-(4-(6-(3-methylmorpholinyl)-1-(1H-pyrazolyl-3-yl)-1H-pyrazolyl[3,4-b]pyridin-4-yl)phenyl)acetamide]	≤ 10	10 to 100	
CC(=O)C(=O)Nc1ccc(-c2cc(N3CCOC[C@H]3C)nc3c2cnn3-c2cc[nH]n2)cc1 [Example 31, (R)-N-(4-(6-(3-methylmorpholino)-1-(1H-pyrazol-3-yl)-1H-pyrazolo[3,4-b]pyridin-4-yl)phenyl)-2-oxopropanamide]	≤ 10	10 to 100	
C[C@@H]1COCCN1c1cc(-c2ccc(NC(=O)C3CCC3)cc2)c2cnn(-c3cc[nH]n3)c2n1 [Example 32, (R)-N-(4-(6-(3-methylmorpholinyl)-1-(1H-pyrazolyl-3-yl)-1H-pyrazolyl[3,4-b]pyridin-4-yl)phenyl)cyclobutanecarboxamide]	≤ 10	10 to 100	
C[C@@H]1COCCN1c1cc(-c2ccc(NC(=O)NC3CC3)cc2)c2cnn(-c3cc[nH]n3)c2n1 [Example 33, (R)-1-cyclopropyl-3-(4-(6-(3-methylmorpholinyl)-1-(1H-pyrazolyl-3-yl)-1H-pyrazolyl[3,4-b]pyridin-4-yl)phenyl)urea]	≤ 10	10 to 100	
C[C@@H]1COCCN1c1cc(-c2cccc(N3CCCC3=O)c2)c2cnn(-c3cc[nH]n3)c2n1 [Example 58]	≤ 10		10 to 100
C[C@@H]1COCCN1c1cc(-c2ccc(N3CCCC3=O)cc2F)c2cnn(-c3cc[nH]n3)c2n1 [Example 59, (R)-1-(3-fluoro-4-(6-(3-methylmorpholino)-1-(1H-pyrazol-3-yl)-1H-pyrazolo[3,4-b]pyridin-4-yl)phenyl)pyrrolidin-2-one]	≤ 10	≤ 10	
C[C@@H]1COCCN1c1cc(-c2ccc(N3CCCN(C)C3=O)cc2)c2cnn(-c3cc[nH]n3)c2n1 [Example 62]	≤ 10		10 to 100
C[C@@H]1COCCN1c1cc(-c2ccc(N3CCCNC3=O)cc2)c2cnn(-c3cc[nH]n3)c2n1 [Example 146]	≤ 10		10 to 100
CC(=O)Nc1cccc(-c2cc(N3CCOC[C@H]3C)nc3c2cnn3-c2cc[nH]n2)c1 [Example 149]	≤ 10	10 to 100	
CCC(=O)Nc1ccc(-c2cc(N3CCOC[C@H]3C)nc3c2cnn3-c2cc[nH]n2)cc1 [Example 150]	≤ 10		10 to 100
C[C@@H]1COCCN1c1cc(-c2ccc(NC(=O)C3CCOC3)cc2)c2cnn(-c3cc[nH]n3)c2n1 (some centres unmarked) [Example 154]	≤ 10		10 to 100
C[C@@H]1COCCN1c1cc(-c2ccc(NC(=O)C3CC(N)C3)cc2)c2cnn(-c3cc[nH]n3)c2n1 (some centres unmarked) [Example 158]	≤ 10		10 to 100
C[C@@H]1COCCN1c1cc(-c2ccc(NC(=O)C3CC(O)C3)cc2)c2cnn(-c3cc[nH]n3)c2n1 (some centres unmarked) [Example 160]	≤ 10		10 to 100
CC(=O)N1CCCC(C(=O)Nc2ccc(-c3cc(N4CCOC[C@H]4C)nc4c3cnn4-c3cc[nH]n3)cc2)C1 (some centres unmarked) [Example 162]	≤ 10		10 to 100
Cc1cc(N2CCCCC2=O)ccc1-c1cc(N2CCOC[C@H]2C)nc2c1cnn2-c1cc[nH]n1 [Example 168]	≤ 10		10 to 100
C[C@@H]1COCCN1c1cc(-c2ccc(NC(=O)c3cccs3)cc2)c2cnn(-c3cc[nH]n3)c2n1 [Example 172]	≤ 10		10 to 100
C[C@@H]1COCCN1c1cc(-c2ccc(N3CCCCC3=O)c(F)c2)c2cnn(-c3cc[nH]n3)c2n1 [Example 191]		10 to 100	
C[C@@H]1COCCN1c1cc(-c2ccc(NC(=O)c3cccnc3)cc2F)c2cnn(-c3cc[nH]n3)c2n1 [Example 195]		10 to 100	
C[C@@H]1COCCN1c1cc(-c2ccc(N3CC4CCC(O4)C3=O)cc2F)c2cnn(-c3cc[nH]n3)c2n1 (some centres unmarked) [Example 199]		10 to 100	
C[C@@H]1COCCN1c1cc(-c2ccc(N3CC4CCC(O4)C3=O)c(F)c2)c2cnn(-c3cc[nH]n3)c2n1 (stereo partly drawn) [Example 200, 3-(2-fluoro-4-(6-((R)-3-methylmorpholino)-1-(1H-pyrazol-3-yl)-1H-pyrazolo[3,4-b]pyridin-4-yl)phenyl)-8-oxa-3-azabicyclo[3.2.1]octan-2-one]	≤ 10	10 to 100	
C[C@@H]1COCCN1c1cc(-c2ccc(NC(=O)N3CCCC3)cc2)c2cnn(-c3cc[nH]n3)c2n1 [Example 207]		10 to 100	

SMILES	IC50 (ATR enzyme) [nM]	IC50 (SNU-601 cells; 120 h) [nM]	IC50 (SNU-601 cells) [nM]
C[C@@H]1COCCN1c1cc(C2(C#N)CCN(c3cccc(F)c3)CC2)c2cnn(-c3cc[nH]n3)c2n1 [Example 208]	≤ 10		10 to 100
C[C@@H]1COCCN1c1cc(C#CC2CCCNC2)c2cnn(-c3ccn[nH]3)c2n1 (some centres unmarked) [Example 209]		10 to 100	
C[C@@H]1COCCN1c1cc(-c2ccc(NC(=O)C3CCN(C)C3)cc2)c2cnn(-c3cc[nH]n3)c2n1 (some centres unmarked) [Example 213]		10 to 100	
C[C@@H]1COCCN1c1cc(-c2ccc(NC(=O)c3cccnc3)cc2)c2cnn(-c3cc[nH]n3)c2n1 [Example 214]	≤ 10		10 to 100
CNC(=O)N(C)c1ccc(-c2cc(N3CCOC[C@H]3C)nc3c2cnn3-c2cc[nH]n2)cc1 [Example 215]		10 to 100	
CCN1CCN(c2ccc(-c3cc(N4CCOC[C@H]4C)nc4c3cnn4-c3cc[nH]n3)cc2)C1=O [Example 216]	≤ 10		10 to 100
C[C@@H]1COCCN1c1cc(-c2ccc(NC(=O)C(F)F)cc2)c2cnn(-c3cc[nH]n3)c2n1 [Example 217]		10 to 100	
C[C@@H]1COCCN1c1cc(-c2ccc(NC(=O)C3CC3)cc2)c2cnn(-c3cc[nH]n3)c2n1 [Example 218]	≤ 10	10 to 100	
C[C@@H]1COCCN1c1cc(-c2ccc(NC(=O)N3CCNCC3)cc2)c2cnn(-c3cc[nH]n3)c2n1 [Example 219]	≤ 10	10 to 100	
CCn1ccn(-c2ccc(-c3cc(N4CCOC[C@H]4C)nc4c3cnn4-c3cc[nH]n3)cc2)c1=O [Example 222]	≤ 10	10 to 100	
C[C@@H]1COCCN1c1cc(-c2ccc(N3CCCCC3=O)cc2C#N)c2cnn(-c3cc[nH]n3)c2n1 [Example 224]	≤ 10	10 to 100	
Cc1cc(-c2cc(N3CCOC[C@H]3C)nc3c2cnn3-c2cc[nH]n2)ccc1NC(=O)N1CCCC1 [Example 226]	≤ 10	10 to 100	
CCC(=O)Nc1ccc(-c2cc(N3CCOC[C@H]3C)nc3c2cnn3-c2cc[nH]n2)c(F)c1 [Example 233]	≤ 10	10 to 100	
C[C@@H]1COCCN1c1cc(-c2ccc(NC(=O)C3CC3)cc2F)c2cnn(-c3cc[nH]n3)c2n1 [Example 234]	≤ 10	10 to 100	
C[C@@H]1COCCN1c1cc(-c2ccc(NC(=O)C(F)F)cc2F)c2cnn(-c3cc[nH]n3)c2n1 [Example 236]	≤ 10	10 to 100	
C[C@@H]1COCCN1c1cc(-c2ccc(N3CC4CCC(O4)C3=O)cn2)c2cnn(-c3cc[nH]n3)c2n1 (some centres unmarked) [Example 237]	≤ 10	10 to 100	
C[C@@H]1COCCN1c1cc(-c2ccc(N3CCCCC3=O)cc2F)c2cnn(-c3cc[nH]n3)c2n1 [Example 238]	≤ 10	10 to 100	
C[C@@H]1COCCN1c1cc(-c2ccc(N3CCCCC3=O)cc2C(F)(F)F)c2cnn(-c3cc[nH]n3)c2n1 [Example 242]		10 to 100	
C[C@@H]1COCCN1c1cc(-c2ccc(-c3ccnn3C)cc2F)c2cnn(-c3cc[nH]n3)c2n1 [Example 258]		10 to 100	
C[C@@H]1COCCN1c1cc(-c2cc(C#N)c(N3CCCCC3=O)cc2F)c2cnn(-c3cc[nH]n3)c2n1 [Example 259]		10 to 100	
